Experimental data from PMC8922758, “A new therapeutic approach for bone metastasis in colorectal cancer: intratumoral melittin” (The Journal of Venomous Animals and Toxins Including …, 2022).

Tests used:
[1] = system: HT-29 human colorectal cancer cells; assay: MTT cytotoxicity assay; assay type: cell-based; settings: 48 h incubation
Experimental: Human CRC (HT-29) was purchased from the European Collection of Authenticated Cell Cultures. It was thawed and propagated in […] flasks at 37 °C in a 5% CO2 humidified chamber (HeraCELL 150) in Dulbecco's modified Eagle's medium (DMEM; Sigma D-5648, São Paulo, Brazil) supplemented with 100 mM sodium pyruvate (Gibco, Thermo Fisher Scientific, Waltham, Massachusetts, USA), 10% fetal bovine serum (FBS) (Gibco, Fisher Scientific, Waltham, Massachusetts, USA), and 1% antibiotics (100 U/mL penicillin and 10 mg/mL streptomycin, Gibco). Cells were detached using 0.25% trypsin-EDTA (Gibco, Fisher Scientific, Waltham, Massachusetts, USA) at 37 °C for 3 min. DMEM plus 10% FBS was used to block the trypsin. The cell pellet was transferred to a new 75 cm^3 flask containing 10 mL DMEM. The culture medium was changed every 24 h. Cell viability was evaluated in the Neubauer chamber using Trypan Blue.
To check the viability, the culture fluid is removed and 5 × 10^5cells per well were treated with melittin (0.0625, 0.125, 0.25, 0.5, 1.0, 2.0, 35 and 70 µM). After 48 h of incubation, MTT (3-(4,5-dimethylthiazol-2-yl)-2,5-diphenyltetrazolium bromide) 0.5 mg/mL was added to each well and incubated at 37 °C for 4 h to determine the number of living cells. […] Then, the optical density was detected by a microplate reader at a wavelength of 540 nm (EPOCH, BioTech Instrument Inc., Winooski, VT, USA). […]

[2] = cited from earlier work
Text: The peptide inhibited approximately 50% of the growth of metastasis. […] In a recent paper melittin could be detected in patients up to 30 days after envenomation, clearly indicating bioaccumulation corroborating the effects of the single-dose treatment. Besides, melittin has the ability to improves sy ...

[3] = system: HT-29 CRC bone metastasis xenograft; assay: Bone metastasis in colorectal cancer mouse model, metastasis volume after intrametastatic injection; assay type: in vivo, Balb/c-nu mice
Experimental: Six-week-old Balb/c-nu male mice (n = 9), weighing 23,76 ± 3,11 g, from Charles River Laboratories International Inc. (Wilmington, USA) were housed in individual ventilated racks. All animals were kept under controlled light conditions (12 h light/12 dark cycles), temperature (23 ± 1 °C), humidity (40%-60%), water, and feed ad libitum.
The procedures were performed in a laminar flow with rigorous asepsis and antisepsis techniques. On day 0, to perform the cell inoculation, mice were anesthetized with xylazine hydrochloride 2% plus ketamine, diluted 1:2 (0.3 mL/20 g), and administered via intramuscular injection. Briefly, cells were suspended in 40 μL of saline. A percutaneous 45° puncture was performed. Bone scarification was performed with the bevel of the hypodermic needle carefully to avoid transfixing the skullcap. Then, without needle exchange, cells (4 × 10^6 cells) were injected over the periosteal in the parietal region using a 1 mL syringe and 36G caliber hypodermic needle.
After xenograft, the animals were monitored daily. Metastasis was verified and measured every day. In case of signs, the animal is euthanized immediately. Metal calipers checked the volume. The growth curves were determined using the formula: Volume = L × S^2/2, where "S" is the smallest diameter measured and "L" is the largest diameter measured.
After the tumor reached 100 mm^3 (by the 19th day after xenograft), the animals were randomized into groups:
After anesthesia, 1,5 mg/kg single dose of melittin was injected in the metastasis with a sterile syringe, as deep as possible, without trespassing the tumor. Without removing the needle, 50 µL of solution was applied slowly for a homogenous distribution into the metastasis, equally distributed (10 µL) in the center and cardinal points. After the administration, the needle remained in the metastasis for 20 seconds before being slowly removed to avoid extravasation.

[4] = Mass spectrometry characterisation (aggregation state); assay type: physicochemical; settings: LC-MS, Q-Exactive Plus, C18, before application in the animals
Text: The purity and identity were confirmed by mass spectrometry using a Q-Exactive Plus (Thermo Fisher Scientific, Waltham, Massachusetts, USA). The peptide was inserted into a C18 column (EASY-Spray™ LC Columns, Thermo Fisher Scientific, Waltham, Massachusetts, USA) coupled to a liquid chromatography binary system (EASY-nLC 1,200, Thermo Scientific, Waltham, Massachusetts, USA) and eluted with a gradient of 5%-80% of solvent A (water containing 0.1% formic acid) and B (90% acetonitrile containing 0.1% formic acid) with a constant flow of 100 nL/min. The eluted was automatically inserted in the mass spectrometer, operating in positive mode, in MS mode of a full scan of 300-1500 m/z.

[5] = Animal follow up: signs of toxicity, body weight, organ histopathology; assay type: in vivo, Balb/c-nu mice
Experimental: Signals of suffering and toxicity were carefully observed daily. The following general behaviors were observed: low activity, appetite loss, personality changes, immobility, social isolation, urine and feces consistency changes, lack of personal hygiene, and self-mutilation. Specific to mice, weight loss, dehydration, piloerection, and screams when touched were evaluated.
Moreover, immediately after euthanized, liver, kidneys, and heart were removed from the animals for histopathological analysis, which was conducted with the same method described above.

[6] = system: HT-29 CRC bone metastasis xenograft; assay: Histopathological analysis of the metastasis; assay type: in vivo, Balb/c-nu mice; settings: H&E
Text: After the anesthetic procedure by the parenteral anesthetic drug overdose, the animals were euthanized. The tumor was then resected entirely for anatomopathological analysis. The external surface of the sample was inspected. The opened and cleaned specimens were immersed in formalin overnight for fixation and embedded in paraffin. Metastasis was sliced to assess bone invasion. Tumor 3 µm sections were stained with hematoxylin-eosin and subjected to optical microscopy. Metastasis diagnosis and histological features were determined.

In the case of `CC[C@H](C)[C@H](NC(=O)CN)C(=O)NCC(=O)N[C@@H](C)C(=O)N[C@H](C(=O)N[C@@H](CC(C)C)C(=O)N[C@@H](CCCCN)C(=O)N[C@H](C(=O)N[C@@H](CC(C)C)C(=O)N[C@H](C(=O)N[C@H](C(=O)NCC(=O)N[C@@H](CC(C)C)C(=O)N1CCC[C@H]1C(=O)N[C@@H](C)C(=O)N[C@@H](CC(C)C)C(=O)N[C@H](C(=O)N[C@@H](CO)C(=O)N[C@@H](Cc1c[nH]c2ccccc12)C(=O)N[C@H](C(=O)N[C@@H](CCCCN)C(=O)N[C@@H](CCCNC(=N)N)C(=O)N[C@@H](CCCCN)C(=O)N[C@@H](CCCNC(=N)N)C(=O)N[C@@H](CCC(N)=O)C(=O)N[C@@H](CCC(N)=O)C(N)=O)[C@@H](C)CC)[C@@H](C)CC)[C@@H](C)O)[C@@H](C)O)C(C)C)C(C)C` [melittin], the “maximum inhibition of HT-29 proliferation” value ([1]; 2 µM, mean of triplicates) is given as 80%, the “decrease of the initial HT-29 cell number” value ([1]; 0.0625-70 µM, triplicates) is given as “about 20%” and the “time melittin is detectable in patients after envenomation” value [2] is given as “up to 30 days”. For the same compound, the “inhibition of growing metastasis” value ([3]; 1,5 mg/kg single intrametastatic dose on day 19, 2 days after the treatment, n = 6 vs untreated n = 3, p < 0.001) was “approximately 50%”, the metastasis reduction ([3]; after a single intrametastatic dose, 1,5 mg/kg) was 53% and the metastasis regrowth ([3]; seven days after single-dose injection) was “metastases started growing again”. The “aggregation state by mass spectrometry” value [4] was “monomeric structure without aggregation”, the “death or severe toxicity signs” value ([5]; after intrametastatic treatment, 1,5 mg/kg single dose) was “no death or severe toxicity signs” and the signs of envenomation ([5]; daily observation after 1,5 mg/kg single intrametastatic dose) was “did not show signs of envenomation”. The “local reaction at injection site” value ([5]; day 20, the day after intrametastatic injection of 1,5 mg/kg) was “local inflammation”, the “histopathological analysis of liver, kidney and heart” value ([5]; day 27, seven days after single dose, H&E) was “no signals of toxicity” and the “body weight versus untreated animals” value ([5]; three days after administration, p < 0.01, n = 6 vs n = 3) was “greater weight loss than those untreated”. For the same compound, the “microscopy of treated metastasis, mitosis rate” value ([6]; melittin-treated animals n = 6) was “low mitosis rate” and the “microscopy of treated metastasis, tumor cells” value ([6]; last experimental day (day 27), n = 6) was “necrosis and absence of tumor cells”.
